Laboratory results from patent publication US6605639B1, “Ligands of nuclear receptor” (Nuclear Receptor Research, Ltd., priority 1998, dated 2003).
Several values for one entry are separate records, joined by “and”; a condition that tells them apart may be missing. Equal entries are not always repeated.

Key:
[1] = test system: bovine serum
Method: To recover such a compound in a free state from plasma, it is required to add a large amount of a water-miscible organic solvent (methanol, ethanol, acetone, acetonitrile, etc.) to the plasma, acidify the mixture (pH 3.0 or below) and then allow it to stand at room temperature for about 1 week. […] Ascochlorin, Compound-6 or Compound-14 is dissolved in a small amount of an organic solvent and added to serum.
At definite points, the serum was sampled and divided into 2 portions. Ten times as much acetonitrile was added to one of these portions and the mixture was centrifuged. Then the free compound in the serum was determined. To the other portion, 10 times as much acetonitrile containing 1% of acetic acid was added. After allowing to stand at room temperature for 1 week, the mixture was centrifuged and the free compound was determined (FIG. 10).

[2] = test system: white rabbits; test: Inhibition of arteriosclerosis in white rabbits fed high fat feed; conditions: 14 weeks
Method: Thus, a high fat feed was prepared by adding 10% of hardened coconut oil, 2% of cholesterol, 0.5% of bovine bile powder and 0.04% or 0.01% of ascochlorin to a powdery marketed standard white rabbit feed and molded the mixture into pellets. Separately, another high fat feed for the control group was prepared without using ascochlorin.
Twenty-four white rabbits weighing about 2 kg were divided into 4 groups at random. One of these groups was regarded as the control group, while the remaining 3 groups were respectively regarded as the clofibrate group, the ascochlorin 0.01% group and the ascochlorin 0.04% group at random. Then the experiment was carried out for 14 weeks.

[3] = test system: rats with adjuvant arthritis; test: Therapeutic effect on rat adjuvant arthritis; assay type: in vivo; conditions: for Inflammation score (5 grades, 1 normal to 5 disabled by swelling in both hind legs): 7 times, day 7
Method: Rats with arthritis employed in Experiment 1 were individuals which suffered from serious arthritis caused by the injection of an adjuvant 45 days ago and thus crawled on forelegs since they could not bend hind legs. Drug effects were evaluated by observing walking, observation with the naked eye of the severity of inflammation in hind legs and the volume of swelling in legs. To 19 SD male rats (weighing about 300 g), Freund's […] adjuvant containing dead tubercle bacillus Aoyama B strain was subcutaneously injected into the tail root to induce arthritis in hind legs. Compound-6 was suspended in a tragacanth gum solution and orally administered at a ratio of 0.5 ml/100 g body weight. Compound-6 was administered to 3 groups including the high-dose model (HM; 50 mg/kg), the medium-dose model (MM; 25 mg/kg) and the low-dose model (LM; 10 mg/kg). Administration was made once a day in morning continuously 7 times. During this period, the hind leg volume was measured at the initiation of the experiment and 2, 4 and 7 days thereafter. The volume change was calculated by referring the volume at the initiation of the experiment as to 100%. On the 7th day, the inflammation conditions in hind legs were evaluated in 5 grades with the naked eye.
Immediately after administration, the three Compound-6 groups were combined and divided again depending on the occurrence of arthritis (i.e., positive and negative groups). Then the data were compared with the data of the control group.

[4] = Oral administration of radioisotope-labeled compound: recovery and distribution of radioactivity; assay type: in vivo, rat; conditions: once
From the text: The Schiff base formed by the reaction of the compound of the present invention with serum protein is an inactivated compound with a masked biological activity. […] It is still interesting that the radioactive compound incorporated into the adipocyte tissue was free Compound-6 dissolved in oil droplets in cells. It is unknown why the radioactivity is distributed selectively in adipocyte tissue and accumulated with the passage of time. […] Namely, the compound of the present invention is converted into a highly safe Schiff base with the masked biological activity at the step of being absorbed via digestive tract. This Schiff base is adsorbed on the target cell surface layer and incorporated into the cells via endocytosis. Then it is hydrolyzed to regenerate the free Compound-6. The free Compound-6 is dissolved in oil droplets in depot fat. In adipocytes, it is gradually dissolved in cytoplasm and exerts its effect. When depot fat in white adipocyte tissue is transported into other tissues as an energy source, the free Compound-6 is transported together with the fat. That is to say, it also serves as a depot simultaneously. The compound according to the present invention is hardly incorporated into other tissues. […] Different from retinoids, the compounds of the present invention can exert the effects without causing the side effects inherent to retinoids. The reasons are, without doubt, related to kinetics (absorption, transportation, regeneration of activated compound in target cell surface layer, etc.) of the compounds of the present invention, which differ from those of retinoids. […]

[5] = test system: Japanese quails; test: Inhibition of arteriosclerosis in Japanese quails fed 1% cholesterol feed; assay type: in vivo, Japanese quail; parameters: key to Atheroma formation in arcuate aorta, grade of individual birds: 0: no atheroma.; I: coated with atheroma at a ratio of 1 to 10% of the total area.; II: coated with atheroma at a ratio of 11 to 40% of the total area.; III: coated with atheroma at a ratio of 41 to 70% of the total area.; IV: coated with atheroma at a ratio of 71 to 100% of the total area; conditions: 9 months; for Atheroma formation in arcuate aorta, grade of individual birds: individuals I-VIII; for decrease of serum cholesterol level / decrease of serum neutral fat level: vs high cholesterol feed control; for Serum neutral fat / Serum total cholesterol: Mean ± SE
Method: When fed with a high fat diet, birds also show the onset of arteriosclerosis within a short period of time. Then 32 adult Japanese quails aged about 30 days were divided into 4 groups at random. […] The feed was prepared by adding 1% of cholesterol to a powdery protein-rich standard fed for chick and molding the mixture into pellets. Compound-6 was added in an amount of 0.16% or 0.0025% to the powdery feed and then the mixture was molded into pellets. The experiment was carried out for 9 months. During this period, the birds were allowed to take the feed and drinking water ad libitum. The feed employed in this experiment contained less fat, compared with the feed employed in the experiments with white rabbits, and was free from bile acid promoting the absorption of cholesterol from the digestive tract.
After 9 months, blood was collected and the serum total cholesterol level and the neutral fat level were measured. […] Each bird was dissected and the aorta was taken out. Then the severity was scored in 5 grades based on the ratio of atheroma to the total endosporium area and thickening of the arterial wall.

[6] = three dose groups combined, total 14

## 3-[5-[l(R),2(S),6(S)-trimethyl-3-oxocylohexyl]-3-methyl-2,4-pentadienyl]-2,4-dihydroxy-5-chloro-6-methylbenzaldehyde [Compound-1]
[1]
  free compound in serum: scarcely detected
[2]; 0.01% and 0.04% in high fat feed
  lesions of obstruction in the coronary artery: significantly alleviated
[2]; 0.01% and 0.04% in high fat feed, 6 animals per group
  survival until the completion of the experiment: all individuals survived
[2]; high fat feed
  increase in the serum total cholesterol level: would not suppress increase

## COc1c(Cl)c(C)c(C=O)c(O)c1C/C=C(C)/C=C/[C@@]1(C)[C@H](C)CCC(=O)[C@@H]1C [Compound-6, 4-O-methylASC]
[3]; HM group, 50 mg/kg oral once a day
  Inflammation score (5 grades, 1 normal to 5 disabled by swelling in both hind legs): 2.2
[3]; LM group, 10 mg/kg oral once a day
  Inflammation score (5 grades, 1 normal to 5 disabled by swelling in both hind legs): 3.2
[3]; MM group, 25 mg/kg oral once a day
  Inflammation score (5 grades, 1 normal to 5 disabled by swelling in both hind legs): 2.8
[3]; after 1 week of oral administration
  walking of rats disabled by swelling in joint: could walk again
[3]; [6]
  Arthritis (+), number of rats: 7
  Arthritis (−), number of rats: 7
[4]
  radioactivity incorporated into white adipocyte tissue: elevated day by day
  route of excretion of radioactivity: mostly excreted via feces
  time after which radioactivity disappeared in most of the organs: 3 days
[5]; High-dose group (0.16%)
  occurrence of atheroma: no atheroma
  Atheroma formation in arcuate aorta, grade of individual birds: 0
[5]; High-dose group (0.16%), n = 8
  Atheroma severity score, Average: 0.00 ± 0.00
[5]; High-dose group
  decrease of serum cholesterol level: 40%
  decrease of serum neutral fat level: 40%
[5]; High-dose, 0.16% in feed
  Serum neutral fat, change vs control: −40.0%
  Serum total cholesterol, change vs control: −40.4%
  Serum neutral fat: 392.6 ± 46.5 mg/dL
  Serum total cholesterol: 1200 ± 136 mg/dL
[5]; Low-dose group (0.0025%)
  fraction of the birds with atheroma: ½
  Atheroma formation in arcuate aorta, grade of individual birds: 0 (4×) and I (coated with atheroma at a ratio of 1 to 10% of the total area.) (4×)
[5]; Low-dose group
  decrease of serum cholesterol level: 25.5%
  decrease of serum neutral fat level: 21.6%
[5]; Low-dose, 0.0025% in feed
  Serum neutral fat, change vs control: −21.6%
  Serum total cholesterol, change vs control: −25.5%
  Serum neutral fat: 513.1 ± 39.2 mg/dL
  Serum total cholesterol: 1499 ± 120 mg/dL
